Reference: publication PMC6299481, “Deciphering the Evolution of Cephalosporin Resistance to Ceftolozane-Tazobactam in Pseudomonas aeruginosa” (mBio, 2018)
Like-named read-outs stand apart in the source and are kept apart here.

What was measured:
[1] = system: E. coli DH10B pBC SK blaPDC-3 E221A; test: MIC, MH agar dilution (CLSI); assay type: cell-based; conditions: Escherichia coli; β-lactam alone; E. coli DH10B pBC SK blaPDC-3 E221A (Table 2 prints E221)
Procedure: (§1) Variant genes were synthesized into the pBC SK (-) vector by Celtek Bioscience (Franklin, TN). Mueller-Hinton (MH) agar-dilution MIC measurements were performed against isogenic transformants producing PDC-3 and nine variants of PDC-3 in pBC SK (-) according to the Clinical and Laboratory Standards Institute (CLSI) guidelines as previously described ([39], [48]). Avibactam, LP-06, and S02030 were tested at a constant 4 µg/ml in combination with various concentrations of ceftazidime. Piperacillin-tazobactam was maintained at a ratio of 8 piperacillin to 1 tazobactam. Ceftolozane-tazobactam was maintained at a ratio of 2 ceftolozane to 1 tazobactam. The MICs are reported as the concentrations at which bacterial growth was no longer observed. All MIC measurements were performed at least three times.

[2] = system: E. coli DH10B pBC SK blaPDC-3 V213A; test: MIC, MH agar dilution (CLSI); assay type: cell-based; conditions: Escherichia coli, β-lactam alone
Procedure: as §1

[3] = system: E. coli DH10B pBC SK blaPDC-3 Y223H; test: MIC, MH agar dilution (CLSI); assay type: cell-based; conditions: Escherichia coli, β-lactam alone
Procedure: as §1

[4] = system: P. aeruginosa 18SH; test: MIC, MH agar dilution (CLSI); assay type: cell-based; conditions: Pseudomonas aeruginosa, β-lactam alone, control strain expressing PDC-3
Procedure: as §1

[5] = system: E. coli DH10B pBC SK blaPDC-3 G216A; test: MIC, MH agar dilution (CLSI); assay type: cell-based; conditions: Escherichia coli; β-lactam alone; E. coli DH10B pBC SK blaPDC-3 G216A (Table 2 prints G216)
Procedure: as §1

[6] = system: E. coli DH10B pBC SK blaPDC-3 E221G; test: MIC, MH agar dilution (CLSI); assay type: cell-based; conditions: Escherichia coli, β-lactam alone
Procedure: as §1

[7] = system: E. coli DH10B pBC SK blaPDC-1; test: MIC, MH agar dilution (CLSI); assay type: cell-based; conditions: Escherichia coli, β-lactam alone
Procedure: as §1

[8] = system: E. coli DH10B; test: MIC, MH agar dilution (CLSI); assay type: cell-based; conditions: Escherichia coli, β-lactam alone
Procedure: as §1

[9] = system: E. coli DH10B pBC SK blaPDC-3; test: MIC, MH agar dilution (CLSI); assay type: cell-based; conditions: Escherichia coli
Procedure: as §1

[10] = system: P. aeruginosa PAO1; test: MIC, MH agar dilution (CLSI); assay type: cell-based; conditions: Pseudomonas aeruginosa; β-lactam alone; P. aeruginosa PAO1, control strain expressing PDC-1
Procedure: as §1

[11] = system: E. coli DH10B pBC SK blaPDC-3 Y223A; test: MIC, MH agar dilution (CLSI); assay type: cell-based; conditions: Escherichia coli, β-lactam alone
Procedure: as §1

[12] = system: E. coli DH10B pBC SK blaPDC-3 V213G; test: MIC, MH agar dilution (CLSI); assay type: cell-based; conditions: Escherichia coli, β-lactam alone
Procedure: as §1

[13] = system: E. coli DH10B pBC SK; test: MIC, MH agar dilution (CLSI); assay type: cell-based; conditions: Escherichia coli, DH10BPBCSK, β-lactam alone
Procedure: as §1

[14] = system: E. coli DH10B pBC SK blaPDC-3 G216R; test: MIC, MH agar dilution (CLSI); assay type: cell-based; conditions: Escherichia coli, β-lactam alone
Procedure: as §1

[15] = system: E. coli DH10B pBC SK blaPDC-3 E221K; test: MIC, MH agar dilution (CLSI); assay type: cell-based, Escherichia coli; conditions: for MIC: Escherichia coli; for fold increase in MIC relative to the wild-type strain: E221K variant strain versus PDC-3 strain, E. coli DH10B
Procedure: as §1

[16] = system: E. coli DH10B strains expressing PDC-3 variants; test: MIC, MH agar dilution (CLSI), variant strains taken together; assay type: cell-based, Escherichia coli; conditions: for MICs when paired with avibactam: oxyimino cephalosporin paired with avibactam
Procedure: as §1

[17] = target: T1, PDC-3 β-lactamase (Pseudomonas aeruginosa, UniProt P24735, T105A); test: Competitive inhibition assay with nitrocefin as reporter substrate (Ki app); assay type: biochemical; conditions: for Ki: 150 μM nitrocefin reporter substrate; for fold difference in Ki app between ceftolozane and ceftazidime: ceftolozane Ki app higher than ceftazidime Ki app
T1 construct: produces the corresponding PDC-3 protein without its signal peptide; made in house; host or cells: E. coli Origami 2 DE3, pET24a (+) blaPDC-3
Procedure: For competitive inhibition assays used to determine Ki app, 150 μM nitrocefin was used as the reporter substrate with increasing concentrations of ceftazidime or ceftolozane. Initial velocities were plotted against concentrations of ceftazidime or ceftolozane. Ki app obs were determined by dividing the slope by the y intercept. Ki app was calculated by correcting Ki app obs for nitrocefin affinity and concentration (equation 3). (3) Ki app=Ki app obs/[1+([NCF]/Km NCF)

[18] = target: T2, E221K variant of PDC-3 β-lactamase (Pseudomonas aeruginosa, UniProt P24735, E247K/T105A); test: Steady-state hydrolysis kinetics; assay type: biochemical
T2 construct: produces the corresponding PDC-3 protein without its signal peptide; made in house; host or cells: E. coli Origami 2 DE3, pET24a (+) blaPDC-3-E221K
Procedure: (§2) Steady-state kinetic and inhibitor parameters were determined by using an Agilent 8453 diode array spectrophotometer at room temperature as previously described ([20], [43], [49]). Each assay was performed in 10 mM phosphate-buffered saline (PBS) at pH 7.4 at room temperature (RT = ∼25°C) in a quartz cuvette with a 1-cm path length. Measurements were obtained using ceftolozane and ceftazidime. The kinetic parameters, Vmax and Km, were obtained with a nonlinear least-squares fit of the data (Henri Michaelis-Menten, equation 1) using Origin 7.5VR (OriginLab, Northampton, MA).(1) v=Vmax [S]/Km+[S]

[19] = target: T1, PDC-3 β-lactamase; conditions: cited from earlier work; for Km: PDC-3, previously reported value; for kcat: PDC-3, reported value
[20] = target: T1, PDC-3 β-lactamase; test: Steady-state hydrolysis kinetics; assay type: biochemical; conditions: reporter substrate with PDC-3
Procedure: as §2

[21] = β-lactam alone, E. coli DH10B pBC SK blaPDC-3, read-out: MIC value
[22] = β-lactam alone, E. coli DH10B pBC SK blaPDC-3 E221K, read-out: MIC value
[23] = read-out: MIC value, β-lactam alone, E. coli DH10B pBC SK blaPDC-3
[24] = substrate hydrolysis by E221K, 10 mM PBS pH 7.4, room temperature

SMILES	MIC [1] [µg/mL]	MIC [2] [µg/mL]	MIC [3] [µg/mL]	MIC [4] [µg/mL]	MIC [5] [µg/mL]	MIC [6] [µg/mL]	MIC [7] [µg/mL]	MIC [8] [µg/mL]	MIC [10] [µg/mL]	MIC [11] [µg/mL]	MIC [12] [µg/mL]	MIC [13] [µg/mL]	MIC [14] [µg/mL]	MIC [9, 23] [µg/mL]	MIC ([15]; read-out: MIC value) [µg/mL]	also measured
CC1(C)S[C@@H]2[C@H](NC(=O)[C@H](N)c3ccccc3)C(=O)N2[C@H]1C(=O)O [Ampicillin]	1020	1020	512	4100	1020	512	256	4	2050	256	1020	4	1020			MIC [9, 21]: 256 µg/mL; MIC [15, 22]: 256 µg/mL
C[C@H]1[C@H](NC(=O)/C(=N\OC(C)(C)C(=O)O)c2csc(N)n2)C(=O)N1S(=O)(=O)O [Aztreonam]	4	8	4	128	8	4	0.5	0.125	4	4	8	0.125	16	1	8	
CO/N=C(\C(=O)N[C@@H]1C(=O)N2C(C(=O)[O-])=C(C[N+]3(C)CCCC3)CS[C@H]12)c1csc(N)n1 [Cefepime]	0.125	0.125	0.125	128	0.125	0.125	0.125	0.125	4	0.25	0.125	< 0.06	0.25	≤ 0.06	0.25	
CO/N=C(\C(=O)N[C@@H]1C(=O)N2C(C(=O)O)=C(COC(C)=O)CS[C@H]12)c1csc(N)n1 [Cefotaxime]	16	16	8	> 256	8	8	8	< 0.06	16	16	16	< 0.06	16	8	4	
CC(C)(O/N=C(\C(=O)N[C@@H]1C(=O)N2C(C(=O)[O-])=C(C[n+]3ccccc3)CS[C@H]12)c1csc(N)n1)C(=O)O [Ceftazidime]	8	32	16	64	16	32	2	0.25	1	32	16	0.25	32	2	64	MICs when paired with avibactam [16]: ≤ 1 mg/L; Ki [17]: 22 µM; fold difference in Ki app between ceftolozane and ceftazidime [17]: ~60 fold; fold increase in MIC relative to the wild-type strain [15]: 32 fold; Km [18, 24]: 174 ± 20 µM; Vmax [18, 24]: 0.9 ± 0.1 µM/s; kcat [18, 24]: 9 ± 1 s⁻¹; Km ([19]; ref 20): 51.7 ± 2.1 µM; Km ([19]; ref 28): 35 µM; kcat ([19]; ref 4): 0.002 s⁻¹; kcat ([19]; ref 28): 0.02 s⁻¹
Cn1c(N)c(NC(=O)NCCN)c[n+]1CC1=C(C(=O)O)N2C(=O)[C@@H](NC(=O)/C(=N\OC(C)(C)C(=O)[O-])c3nsc(N)n3)[C@H]2SC1 [Ceftolozane]	2	4	8	8	2	16	0.5	0.5	0.5	32	4	0.5	8	0.5	64	MIC ([9]; read-out: ceftolozane MIC, PDC-3 strain, Table 2): 0.5 µM; MICs when paired with avibactam [16]: ≤ 1 mg/L; Ki [17]: 1300 µM; fold difference in Ki app between ceftolozane and ceftazidime [17]: 60 fold; fold increase in MIC relative to the wild-type strain [15]: 128 fold; MIC ([15]; read-out: ceftolozane MIC): 64 µM; Km [18, 24]: 341 ± 64 µM; Vmax [18, 24]: 1.0 ± 0.1 µM/s; kcat [18, 24]: 10 ± 1 s⁻¹
C[C@@H](O)[C@H]1C(=O)N2C(C(=O)O)=C(SCCN=CN)C[C@H]12 [Imipenem]	0.5	0.5	0.5	2	0.5	0.5	0.25		2	0.5	0.5	0.25	0.5	0.25	0.5	
CCN1CCN(C(=O)N[C@@H](C(=O)N[C@@H]2C(=O)N3[C@@H]2SC(C)(C)[C@@H]3C(=O)O)c2ccccc2)C(=O)C1=O [Piperacillin]	128	64	32	512	64	64	16	2	4	16	64	2	16			MIC [9, 21]: 16 µg/mL; MIC [15, 22]: 16 µg/mL
O=C(Cc1cccs1)N[C@@H]1C(=O)N2C(C(=O)O)=C(/C=C/c3ccc([N+](=O)[O-])cc3[N+](=O)[O-])CS[C@H]12 [nitrocefin]																Km ([18]; reporter substrate with E221K): 17 ± 3 µM; Km [20]: 20 ± 2 µM
C[C@]1(Cn2ccnn2)[C@H](C(=O)O)N2C(=O)C[C@H]2S1(=O)=O [tazobactam]																fold attenuation of variant strain MICs compared to single antibiotic ([16]; piperacillin-tazobactam and ceftolozane-tazobactam combinations): 2- to 8 fold
